# Assay results reported in ChEMBL document CHEMBL3881525, “Analogs of dehydrophenylahistins and their therapeutic use” (2007).
# Activity calls are given as the source filed them. The rule behind the calls is not given here.
# Experiments:
# [1] = biological target: Tubulin alpha (Homo sapiens) (UniProt P0DPH7+P68366+Q71U36+P68363+Q9BQE3+Q6PEY2+A6NHL2+Q9NY65); assay: Induction of alpha-tubulin depolymerization in HUVEC at 200 nM measured after 30 mins by DAPI staining based indirect immunofluorescence analysis; assay type: cell-based
# Tubulin (Homo sapiens) [2] = biological target: T1, Tubulin (Homo sapiens) (UniProt P68371+Q9H4B7+P0DPH7+P68366+Q13509+Q71U36+P04350+Q3ZCM7+P07437+P68363+Q9BQE3+Q6PEY2+Q13885+Q9BVA1+Q9BUF5); assay: Induction of microtubule instability in human MCF7 cells assessed as time spent for attenuation at IC25 for mitotic block measured after 20 hrs by immunofluorescence analysis; assay type: cell-based
# Tubulin (Homo sapiens) [3] = biological target: T1, Tubulin (Homo sapiens); assay: Induction of microtubule instability in human MCF7 cells assessed as mean shortening rate at IC25 for mitotic block measured after 20 hrs by immunofluorescence analysis; assay type: cell-based
# Rattus norvegicus [4] = assay: Increase in blood flow in rat skeletal muscle at 15 mg/kg, ip measured after 24 hrs by [125I]iodoantipyrine based method relative to vehicle control; assay type: ADME, organism-based; conditions: in vivo
# [5] = Antifungal activity against Candida glabrata measured after 48 hrs by broth dilution method; assay type: functional; conditions: Nakaseomyces glabratus
# Rattus norvegicus [6] = assay: Reduction in blood flow in rat gut at 15 mg/kg, ip measured after 24 hrs by [125I]iodoantipyrine based method relative to vehicle control; assay type: ADME, organism-based; conditions: in vivo
# Mus musculus [7] = assay: Antivascular activity against mouse N202 tumor spheroids expressing H2B-GFP allografted in mouse assessed as inhibition of tumor-induced central vasculature at 10 mg/kg, iv administered on day 13 as infusion for 5 mins measured on day 15 by fluorescence video microscopy; assay type: functional, organism-based
# HeLa = assay: Effect on cell cycle progression in human HeLa cells assessed as reduction in 2N cells at 100 nM; assay type: functional, cell-based
# [8] = Toxicity in mouse allografted with mouse N202 tumor spheroids expressing H2B-GFP at 10 mg/kg, iv administered on day 13 as infusion for 5 mins; assay type: organism-based; conditions: in vivo
# Mus musculus [9] = assay: Antivascular activity against mouse N202 tumor spheroids expressing H2B-GFP allografted in mouse assessed as inhibition of tumor-induced central vasculature at 5 mg/kg, iv administered on day 12 as infusion for 2 mins measured on day 15 by fluorescence video microscopy; assay type: functional, organism-based
# Tubulin (Homo sapiens) [10] = biological target: T1, Tubulin (Homo sapiens); assay: Induction of microtubule instability in human MCF7 cells assessed as time spent for growth at IC25 for mitotic block measured after 20 hrs by immunofluorescence analysis; assay type: cell-based
# Tubulin (Homo sapiens) [11] = biological target: T1, Tubulin (Homo sapiens); assay: Induction of microtubule instability in human MCF7 cells assessed as mean growth rate at IC25 for mitotic block measured after 20 hrs by immunofluorescence analysis; assay type: cell-based
# MCF7 [12] = assay: Antimitotic activity in human MCF7 cells assessed as bipolar cells with uncompressed chromosomes at mitotic block IC50 measured after 20 hrs by immunofluorescence analysis relative to control; assay type: functional
# Tubulin (Homo sapiens) [13] = biological target: T1, Tubulin (Homo sapiens); assay: Time required for induction of microtubule dynamic instability in human MCF7 cells at IC25 for mitotic block measured after 20 hrs by immunofluorescence analysis; assay type: cell-based
# Tubulin (Homo sapiens) [14] = biological target: T1, Tubulin (Homo sapiens); assay: Induction of microtubule instability in human MCF7 cells assessed as mean growth rate at IC50 for mitotic block measured after 20 hrs by immunofluorescence analysis; assay type: cell-based
# [15] = Cytotoxicity against human MDA-MB-231 cells assessed as reduction in cell viability measured after 48 hrs by resazurin dye-based fluorometric analysis; assay type: functional; conditions: MDA-MB-231, 48 h
# Rattus norvegicus [16] = assay: Effect on blood flow in rat heart at 15 mg/kg, ip measured after 1 hr by [125I]iodoantipyrine based method relative to vehicle control; assay type: ADME, organism-based; conditions: in vivo
# [17] = biological target: Tyrosine-protein kinase Lyn (Mus musculus) (UniProt P25911); conditions: 10 uM
# Description: Inhibition of mouse Lyn at 10 uM in presence of ATP
# Rattus norvegicus [18] = assay: Reduction in blood flow in rat spleen at 15 mg/kg, ip measured after 24 hrs by [125I]iodoantipyrine based method relative to vehicle control; assay type: ADME, organism-based; conditions: in vivo
# MCF7 [19] = assay: Antimitotic activity in human MCF7 cells assessed as mitotic index measured after 20 hrs by DAPI-staining based fluorescence microscopic analysis; assay type: functional, cell-based
# [20] = Antitumor activity against human DU145 cells xenografted in nude mouse assessed as tumor growth inhibition at 7.5 mg/kg, iv administered every third day for 5 days measured on day 28 relative to control; assay type: functional; conditions: DU-145, iv, read-out: TGI
# [21] = Toxicity in mouse allografted with mouse N202 tumor spheroids expressing H2B-GFP assessed as effect on tumor surrounding vasculature in the dorsal skin fold at 5 mg/kg, iv administered on day 12 as infusion for 2 mins measured on day 15; assay type: organism-based; conditions: in vivo
# [22] = Antitumor activity against human A549 cells xenografted in nude mouse assessed as tumor growth inhibition at 7.5 mg/kg, ip qd administered every third day for 5 days in presence of CPT-11 relative to control; assay type: functional; conditions: 120 h, read-out: TGI
# [23] = Antiproliferative activity against taxol-sensitive human MES-SA cells […]; assay type: functional, cell-based
# Rattus norvegicus [24] = assay: Effect on blood flow in rat brain at 15 mg/kg, ip measured after 1 hr by [125I]iodoantipyrine based method relative to vehicle control; assay type: ADME, organism-based; conditions: in vivo
# [25] = Toxicity in mouse allografted with mouse N202 tumor spheroids expressing H2B-GFP at 5 mg/kg, iv administered on day 12 as infusion for 2 mins; assay type: organism-based; conditions: in vivo
# [26] = biological target: Cyclin-dependent kinase 1/cyclin B1 (Homo sapiens) (UniProt P06493+P14635); conditions: 10 uM
# Description: Inhibition of human CDK1/human cyclinB at 10 uM in presence of ATP
# Tubulin (Bos taurus) = Tubulin (Bos taurus) (UniProt Q6B856+Q862L2+Q862F3); conditions: 10 uM
# Description: Inhibition of [3H]CLC binding to bovine brain tubulin at 10 uM measured after 120 mins in presence of GTP by scintillation counting method
# MDA-MB-231 = assay: Antitumor activity against human MDA-MB-231 cells xenografted in nude mouse assessed as tumor growth inhibition at 7.5 mg/kg, ip administered thrice per day for 5 days in presence of paclitaxel relative to control; assay type: functional, organism-based
# Tubulin (Homo sapiens) [27] = biological target: T1, Tubulin (Homo sapiens); assay: Induction of microtubule dynamic instability in human MCF7 cells assessed as effect on spindle morphology at mitotic block IC25 measured after 20 hrs by immunofluorescence analysis; assay type: cell-based
# [28] = Antifungal activity against Trichophyton rubrum isolate 2 measured after 48 hrs by broth dilution method; assay type: functional
# [29] = Cytotoxicity against human PC3 cells assessed as reduction in cell viability measured after 48 hrs by resazurin dye-based fluorometric analysis; assay type: functional; conditions: PC-3, 48 h
# [30] = Antifungal activity against Trichophyton mentagrophytes isolate 2 measured after 48 hrs by broth dilution method; assay type: functional
# Rattus norvegicus [31] = assay: Reduction in blood flow in rat heart at 15 mg/kg, ip measured after 24 hrs by [125I]iodoantipyrine based method relative to vehicle control; assay type: ADME, organism-based; conditions: in vivo
# Tubulin (Homo sapiens) [32] = biological target: T1, Tubulin (Homo sapiens); assay: Time required for induction of microtubule dynamic instability in human MCF7 cells at IC50 for mitotic block measured after 20 hrs by immunofluorescence analysis; assay type: cell-based
# Rattus norvegicus [33] = assay: Reduction in blood flow in rat skin at 15 mg/kg, ip measured after 24 hrs by [125I]iodoantipyrine based method relative to vehicle control; assay type: ADME, organism-based; conditions: in vivo
# Rattus norvegicus [34] = assay: Reduction in blood flow in rat kidney at 15 mg/kg, ip measured after 24 hrs by [125I]iodoantipyrine based method relative to vehicle control; assay type: ADME, organism-based; conditions: in vivo
# Sequence of Cyclin-dependent kinase 1/cyclin B1 (Homo sapiens) (P06493 whole entry, looked up): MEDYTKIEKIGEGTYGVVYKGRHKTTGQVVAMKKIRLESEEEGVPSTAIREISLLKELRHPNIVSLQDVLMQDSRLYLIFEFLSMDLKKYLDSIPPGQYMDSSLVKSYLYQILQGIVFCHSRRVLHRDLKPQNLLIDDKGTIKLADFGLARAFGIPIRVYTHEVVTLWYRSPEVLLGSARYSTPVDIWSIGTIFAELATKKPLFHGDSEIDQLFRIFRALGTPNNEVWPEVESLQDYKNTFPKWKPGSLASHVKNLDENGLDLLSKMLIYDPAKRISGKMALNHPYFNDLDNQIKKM
# Sequence of Cyclin-dependent kinase 1/cyclin B1 (Homo sapiens) (P14635 whole entry, looked up): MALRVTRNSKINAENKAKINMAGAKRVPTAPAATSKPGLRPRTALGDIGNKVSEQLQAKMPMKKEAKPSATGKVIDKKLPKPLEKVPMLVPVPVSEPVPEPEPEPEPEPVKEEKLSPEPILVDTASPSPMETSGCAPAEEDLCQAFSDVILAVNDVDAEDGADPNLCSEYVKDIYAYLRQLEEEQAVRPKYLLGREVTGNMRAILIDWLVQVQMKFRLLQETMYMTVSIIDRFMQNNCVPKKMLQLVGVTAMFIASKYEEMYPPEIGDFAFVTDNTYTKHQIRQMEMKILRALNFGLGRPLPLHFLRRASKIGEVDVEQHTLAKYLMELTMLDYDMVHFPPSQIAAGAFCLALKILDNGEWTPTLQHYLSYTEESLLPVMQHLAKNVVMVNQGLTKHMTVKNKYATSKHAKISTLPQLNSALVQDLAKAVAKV
# Sequence of Tyrosine-protein kinase Lyn (Mus musculus) (P25911 whole entry): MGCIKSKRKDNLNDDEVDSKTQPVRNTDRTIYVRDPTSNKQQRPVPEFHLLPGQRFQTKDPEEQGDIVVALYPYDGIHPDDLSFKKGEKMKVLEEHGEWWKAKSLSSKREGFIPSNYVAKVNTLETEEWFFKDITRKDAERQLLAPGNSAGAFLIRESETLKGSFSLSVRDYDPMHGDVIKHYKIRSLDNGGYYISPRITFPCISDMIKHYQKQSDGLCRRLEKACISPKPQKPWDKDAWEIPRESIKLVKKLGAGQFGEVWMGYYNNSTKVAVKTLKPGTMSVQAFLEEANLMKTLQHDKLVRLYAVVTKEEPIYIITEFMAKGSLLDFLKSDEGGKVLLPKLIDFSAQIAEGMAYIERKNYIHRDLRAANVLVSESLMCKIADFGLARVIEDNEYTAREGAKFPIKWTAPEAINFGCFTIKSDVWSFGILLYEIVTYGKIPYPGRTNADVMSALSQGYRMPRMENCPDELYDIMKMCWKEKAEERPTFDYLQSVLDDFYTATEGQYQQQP
smiles,measurement,setting,value
CC(C)(C)c1[nH]cnc1/C=c1\[nH]c(=O)/c(=C/c2ccccc2)[nH]c1=O [PLINABULIN],Activity,[1],Active
same,Activity,Tubulin (Homo sapiens) [2],49.8%
same,TIME,Tubulin (Homo sapiens) [2],0.0122 h
same,Activity,Tubulin (Homo sapiens) [3],31.9 um/min
same,Activity,Rattus norvegicus [4],Toxic
same,MIC,[5],> 32 µg/mL
same,Activity,Rattus norvegicus [6],Toxic
same,inhibition,Mus musculus [7],Active
same,Activity,HeLa,Active
same,Activity,[8],Non-Toxic
same,inhibition,Mus musculus [9],Active
same,Activity,Tubulin (Homo sapiens) [10],29.7%
same,TIME,Tubulin (Homo sapiens) [10],0.00517 h
same,Activity,Tubulin (Homo sapiens) [11],11.9 um/min
same,Activity,MCF7 [12],Active
same,TIME,Tubulin (Homo sapiens) [13],0.728 h
same,Activity,Tubulin (Homo sapiens) [14],10.6 um/min
same,EC50,[15],13.8 nM
same,Activity,Rattus norvegicus [16],Non-Toxic
same,inhibition,[17],> 50%
same,Activity,Rattus norvegicus [18],Toxic
same,inhibition,MCF7 [19],Dose-dependent effect
same,inhibition in vivo at 7.5 mg/kg,[20],92.5%
same,Activity,[21],Non-Toxic
same,inhibition in vivo at 7.5 mg/kg,[22],74%
same,EC50,[23],8.5 to 34 nM
same,Activity,Rattus norvegicus [24],Non-Toxic
same,Activity,[25],Non-Toxic
same,inhibition,[26],> 50%
same,inhibition,Tubulin (Bos taurus),Active
same,TGI,MDA-MB-231,Active
same,Activity,Tubulin (Homo sapiens) [27],Active
same,MIC,[28],< 0.03 µg/mL
same,EC50,[29],1 to 13.4 nM
same,MIC,[30],> 16 µg/mL
same,Activity,Rattus norvegicus [31],Toxic
same,TIME,Tubulin (Homo sapiens) [32],0.552 h
same,Activity,Rattus norvegicus [33],Toxic
same,Activity,Rattus norvegicus [34],Toxic
